Test results from US20100093820A1, “CRYSTALLINE PYRAZOLES” (PHARMACIA & UPJOHN COMPANY LLC, priority 2004, published 2010).

Columns and labels:
[1] = Relative stability of crystal forms at ambient temperature and pressure; format: physicochemical
From the text: has been described in U.S. Pat. Nos. 5,466,823 and 5,521,207. The description describes a synthesis of the compound, but is silent with respect to the crystalline form which is obtained. […] The forms can be distinguished by their PXRD (powder X-ray diffraction) patterns.

[2] = Suspension crystallization: relative thermodynamic stability of Forms I and II; format: physicochemical; conditions: mixture of Forms I and II suspended in toluene, stirred at least three days, solid identified by PXRD
Procedure: Methods. Suspension crystallization. The relative stability relationship between Forms I and II at a specific temperature was bracketed by suspending a mixture of the two polymorphs in toluene in a closed glass vial that was equilibrated at the temperature of interest. Excess solid of one polymorph was first added to saturate toluene in a glass vial at the chosen temperature. The other polymorph was added at least half an hour later. The suspension was stirred continuously for at least three days. A portion of the suspension was withdrawn and immediately filtered. The filtered solid was analyzed using PXRD to identify the equilibrium solid at that temperature. […] By repeating the experiment at different temperatures, the Tt was bracketed.
Suspension Crystallization. […] The Tt must be approximately 70 to about 73° C.

Compound: NS(=O)(=O)c1ccc(-n2nc(C(F)(F)F)cc2-c2ccc(F)cc2)cc1 [Form II, 4-[5-(4-fluorophenyl)-3-(trifluoromethyl)-1H-pyrazol-1-yl]-benzenesulfonamide]
- stability of crystal form relative to the other form [1]: unstable with respect to another form, Form I
- temperature at which the form is thermodynamically more stable (equilibrium solid phase) [2]: ≥ 71.5 °C

Compound: NS(=O)(=O)c1ccc(-n2nc(C(F)(F)F)cc2-c2ccc(F)cc2)cc1 [Form I, 4-[5-(4-fluorophenyl)-3-(trifluoromethyl)-1H-pyrazol-1-yl]-benzenesulfonamide]
- temperature at which the form is thermodynamically more stable (equilibrium solid phase) [2]: ≤ 71.0 °C
